Laboratory results: paper PMC2765047 (Journal of medicinal chemistry, 2009)
Like-named read-outs stand apart in the source and are kept apart here.

Tests used:
[1] = Visual cytotoxicity in uninfected HFF's used in plaque reduction assays; assay type: cell-based; conditions: human
[2] = Cytotoxicity by neutral red uptake; assay type: cell-based; conditions: human
ADA from calf intestine = target: T1, ADA from calf intestine (Bos taurus, UniProt P56658); test: Adenosine deaminase; assay type: biochemical
T1 sequence (P56658 1-363): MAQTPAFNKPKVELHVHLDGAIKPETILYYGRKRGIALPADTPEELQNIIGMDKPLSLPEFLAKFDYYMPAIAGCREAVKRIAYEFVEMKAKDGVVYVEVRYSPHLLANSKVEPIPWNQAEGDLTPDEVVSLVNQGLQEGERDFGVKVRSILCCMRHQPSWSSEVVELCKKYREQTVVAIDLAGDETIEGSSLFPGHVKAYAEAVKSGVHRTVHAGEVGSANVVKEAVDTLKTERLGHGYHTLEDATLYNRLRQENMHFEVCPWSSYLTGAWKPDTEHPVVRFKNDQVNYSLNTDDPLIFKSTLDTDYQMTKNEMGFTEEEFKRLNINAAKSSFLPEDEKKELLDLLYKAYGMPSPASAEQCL

in vitro = assay type: cell-based; conditions: human
HSV-1 = HSV-1 antiviral assay; assay type: cell-based, herpes simplex virus 1; conditions: human foreskin fibroblast (HFF) culture
HSV-2 = HSV-2 antiviral assay; assay type: cell-based, herpes simplex virus 2; conditions: human foreskin fibroblast (HFF) culture
HCMV = conditions: ref [1]; cited from earlier work
HCMV Towne = test: HCMV plaque reduction assay, Towne strain, in HFF cells; assay type: cell-based, human cytomegalovirus (HCMV); conditions: Human betaherpesvirus 5, HFF, read-out: EC50 Virus Strain Towne
HFF cells [3] = conditions: read-out: CC50 HCMV/HFF Towne; visual cytotoxicity in uninfected HFF's; ref [2]; cited from earlier work
HFF cells [4] = conditions: read-out: CC50 HCMV/HFF AD169; cytotoxicity by neutral red uptake; ref [2]; cited from earlier work
Akata cells = conditions: read-out: CC50 EBV/Akata, ref [28]; cited from earlier work

| SMILES | CC50 [1] [µM] | CC50 [2] [µM] | further results |
| --- | --- | --- | --- |
| Nc1nc2c(ncn2/C=C2/C[C@@H]2[C@@H](O)CO)c(=O)[nH]1 [Compound 14b] | > 100 | > 300 | – |
| Nc1nc2c(ncn2/C=C2/C[C@H]2[C@H](O)CO)c(=O)[nH]1 [ent-14b] | > 300 | > 300 | – |
| Nc1ncnc2c1ncn2/C=C1/C[C@H]1[C@@H](O)CO [ent-12a] | > 100 | 194 | substrate activity toward ADA (in words) (ADA from calf intestine): resistant to deamination |
| Nc1ncnc2c1ncn2/C=C1\C[C@H]1[C@@H](O)CO [ent-13a] | > 100 | – | – |
| Nc1nc2c(ncn2/C=C2/C[C@H]2[C@@H](O)CO)c(=O)[nH]1 [ent-12b] | – | – | CC50 (in vitro): 284 µM; activity against HSV-1 (in words) (HSV-1): inactive; activity against HSV-2 (in words) (HSV-2): inactive |
| Nc1nc2c(ncn2/C=C2\C[C@H]2[C@@H](O)CO)c(=O)[nH]1 [ent-13b] | > 100 | – | – |
| Nc1ncnc2c1ncn2/C=C1/C[C@@H]1[C@H](O)CO [Compound 12a] | > 100 | > 300 | – |
| Nc1nc2c(ncn2/C=C2/C[C@@H]2[C@H](O)CO)c(=O)[nH]1 [Compound 12b, (+)-9-{(Z)-{(S)-2-[(S)-1,2-Dihydroxyethyl)cyclopropylidene]methyl}guanine] | > 100 | > 300 | – |
| Nc1c2ncnc-2ncn1/C=C1\CC1CO (centres unmarked) [Compound 1a, synadenol] | – | – | activity against HCMV (in words) (HCMV): effective |
| Nc1ncnc2c1ncn2/C=C1\C[C@@H]1[C@@H](O)CO [Compound 15a] | > 100 | > 300 | – |
| Nc1nc2c(ncn2/C=C2\C[C@@H]2[C@@H](O)CO)c(=O)[nH]1 [Compound 15b] | > 100 | > 300 | – |
| Nc1nc(O)c2ncn(/C=C3/CC3CO)c2n1 (centres unmarked) [Compound 1b] | – | – | activity against HCMV (in words) (HCMV): highly effective |
| Nc1ncnc2c1ncn2C=C1CC1(CO)CO [Compound 3a] | – | – | activity against HCMV (in words) (HCMV): effective |
| Nc1nc2c(ncn2/C=C2\C[C@@H]2[C@H](O)CO)c(=O)[nH]1 [Compound 13b] | > 100 | – | – |
| Nc1ncnc2c1ncn2/C=C1/C[C@@H]1[C@@H](O)CO [Compound 14a] | > 100 | – | – |
| Nc1nc2c(ncn2COC(CO)CO)c(=O)[nH]1 [Ganciclovir, ganciclovir] | – | – | EC50 (HCMV Towne): 2 µM |
| Nc1ncnc2c1ncn2/C=C1\C[C@H]1[C@H](O)CO [ent-15a] | > 100 | – | – |
| Nc1ncnc2c1ncn2/C=C1\C[C@@H]1[C@H](O)CO [Compound 13a] | – | > 300 | – |
| Nc1ncnc2c1ncn2/C=C1/C[C@H]1[C@H](O)CO [ent-14a] | > 100 | – | substrate activity toward ADA (in words) (ADA from calf intestine): resistant to deamination |
| Nc1nc2c(ncn2/C=C2/CC2(CO)CO)c(=O)[nH]1 [Compound 3b, cyclopropavir] | – | – | EC50 (HCMV Towne): 0.6 µM; CC50 (HFF cells [3]): > 100 µM; CC50 (HFF cells [4]): > 100 µM; CC50 (Akata cells): 46 µM; activity against HCMV (in words) (HCMV): highly effective |
